From paper PMC12951568, “Identifying Structural Factors Governing the Photodynamic Activity of Phthalocyanines” (Journal of Medicinal Chemistry, 2026)
Where two headings read alike, the source gives them in different places.

Legend:
[1] = Absorption and fluorescence emission spectra in DMF; format: physicochemical; conditions: in DMF
Experimental: (§1) An absorption spectrum of 2.475 mL of solvent (water, DMF, or PBS) was taken (i.e., absorption spectrum of baseline); then, 25 μL of stock solution was added to reach the final concentration of 1 μM in the cuvette, and the absorption and emission spectra were taken. Baseline of the solvent was subtracted from the obtained absorption spectrum to get the final absorption spectrum of the sample.

[2] = Quantum yield of singlet oxygen production, comparative method with DPBF scavenger; format: physicochemical; conditions: in DMF, ZnPc as reference
How it was run: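 Dye added from 100 μM DMF stock (or DMF/water, water); irradiated under stirring with xenon lamp through water filter and OG530 cut-off (>523 nm). DPBF decay followed at 415 nm; ΦΔ from ln(A0/At) slopes versus reference, normalised to absorbed light summed over 523–850 nm; triplicate means, ±10% error.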

[3] = test system: MCF-7 (human breast adenocarcinoma); parameters: method as in number not printed in Table 2; conditions: 12 h incubation, Xe-lamp 15 min, λ > 570 nm, 11.2 J/cm^2; mean ± SD; determined previously under the same conditions at the same workplace and published; ref number not given; cited from earlier work
[4] = Aggregation / monomerization in aqueous media (spectra in water and PBS); format: physicochemical; conditions: 1 μM
Experimental: as §1

[5] = Fluorescence quantum yield, comparative method; format: physicochemical; conditions: in DMF; ZnPc as reference
How it was run: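 ΦF determined by the comparative method against ZnPc (ΦF 0.32 in THF), using integrated emission area, absorbance at the excitation wavelength and solvent refractive index. Q-band absorbance kept below 0.05; estimated error ± 15%.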

[6] = test system: HeLa (human cervical carcinoma); conditions: 12 h incubation, Xe-lamp 15 min, λ > 570 nm, 11.2 J/cm^2; mean ± SD; determined previously under the same conditions at the same workplace and published; ref number not given; read-out: EC50 (nM) HeLa; cited from earlier work
[7] = test system: SK-MEL-28 (human skin melanoma); assay: Photodynamic activity (phototoxicity, neutral red uptake) on SK-MEL-28; format: cell-based; conditions: 12 h incubation, Xe-lamp 15 min, λ > 570 nm, 11.2 J/cm^2, mean ± SD, t.w. = this work
[8] = Log P, partition between n-octanol and PBS; format: physicochemical; conditions: partition coefficient between 1-octanol and PBS
How it was run: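 Sample from 100 μM stock added to equal volumes of n-octanol and PBS, vortexed 5 min at rt, centrifuged. Each layer diluted into DMF and emission spectra recorded; log P taken as log of octanol/PBS integrated fluorescence ratio, mean of triplicates.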

[9] = test system: MCF-7 (human breast adenocarcinoma); assay: Photodynamic activity (phototoxicity, neutral red uptake) on MCF-7; format: cell-based; conditions: 12 h incubation, Xe-lamp 15 min, λ > 570 nm, 11.2 J/cm^2, mean ± SD, t.w. = this work
[10] = Fluorescence lifetime in DMF; format: physicochemical
From the text: 1 Photophysical Data of Investigated Derivatives in DMF ^a | column: τF1/ns; τF2/ns

[11] = test system: HeLa (human cervical carcinoma); assay: Photodynamic activity (phototoxicity, neutral red uptake) on HeLa; format: cell-based; conditions: 12 h incubation, Xe-lamp 15 min, λ > 570 nm, 11.2 J/cm^2; mean ± SD; t.w. = this work
Experimental: Detailed in vitro studies involving subcellular localization and determination of the EC50 in three different cell lines (human cervical carcinoma–HeLa, human breast adenocarcinoma–MCF-7, and human skin melanoma–SK-MEL-28) were performed. A broadband light source (ozone-free 450 W Xe-lamp, Newport) equipped with the long-pass filter Schott OG570 was used (12.4 mW/cm^2, 15 min, 11.2 J/cm^2).
For the cytotoxicity experiments (phototoxicity), cells were seeded at 100 μL per well into 96-well plates (TPP, Switzerland) at a density of 7.5 × 10^3 (HeLa) or 1.0 × 10^4 (MCF-7 and SK-MEL-28) cells per well. Cells were left to grow for 24 h (until they reached confluency) in a controlled environment of a CO2 incubator (37 °C, 5% CO2 atmosphere, constant high humidity). Subsequently, studied compounds were added in a wide concentration range and incubated with the cells for 12 h. Cells were washed; fresh cell culture medium was added, and the cells were irradiated using a 450 W Xe lamp (Newport, USA). The lamp was equipped with a long pass filter (Newport OG570) and an 8 cm water filter (λ > 570 nm, 12.4 mW/cm^2, 15 min, 11.2 J/cm^2). Cellular viability was assessed after an additional 24 h by the neutral red (NR; Sigma, Merck, USA) uptake assay. At least three independent experiments, each in triplicate, were performed. The soluble NR was measured at λ = 540 nm using a Tecan Infinite 200 M plate reader (Tecan, Austria). The viability of each experimental group was expressed as the percentage of the untreated cells (100% viability) after subtraction of the signal from cells treated with a lethal dose of hydrogen peroxide (0% viability). […] EC50 values were calculated, and graphs were created by using GraphPad Prism 10.3.1 (Graph Pad software, USA).

[12] = in EtOH; ref number not given; cited from earlier work

| Compound | ε, extinction coefficient [1] | λA, absorption maximum in the Q-band [1] | λF, fluorescence emission maximum [1] | ΦΔ, quantum yield of singlet oxygen production [2] | EC50 [3] | aggregation / monomeric state [4] | ΦF, fluorescence quantum yield [5] | EC50 [6] | EC50 [7] | Log P [8] | EC50 [9] | τF1, fluorescence lifetime (relative amplitude in brackets) [10] | τF2, fluorescence lifetime (relative amplitude in brackets) [10] | EC50 [11] | ΦΔ(EtOH) [12] | EC50 ([9]; Homo sapiens, MCF7, light or radiation study) | EC50 ([7]; Homo sapiens, SK-MEL-28, light or radiation study) | logP ([8]; n-octanol/PBS buffer) |
| --- | --- | --- | --- | --- | --- | --- | --- | --- | --- | --- | --- | --- | --- | --- | --- | --- | --- | --- |
| Cc1cc(Cn2cc[n+](C)c2)c(Oc2c3c(c(C)c(C)[n+]2C)C2=NC3=Nc3c4ccccc4c4[n]3[Zn][n]3c(c5ccccc5c3=N2)=NC2=NC(=N4)c3ccccc32)c(Cn2cc[n+](C)c2)c1.[I-].[I-].[I-] [C1Zn] | 100 240 M^–1cm^–1 | 689 nm | 696 nm | 0.66 | 35 ± 2 nM | monomeric in DMF but are aggregated in PBS | 0.15 | 27 ± 9 nM | 22 ± 3 nM | 0.53 |  |  |  |  |  |  |  |  |
| Cc1cc(Cn2cc[n+](C)c2)c(Oc2cc3c(cc2Oc2c(Cn4cc[n+](C)c4)cc(C)cc2Cn2cc[n+](C)c2)C2=Nc4c5ccccc5c5[n]4[Zn][n]4c(c6ccccc6c4=NC3=N2)=NC2=NC(=N5)c3ccccc32)c(Cn2cc[n+](C)c2)c1.[I-].[I-].[I-].[I-] [C3Zn] | 177 190 M^–1cm^–1 | 673 nm | 682 nm | 0.53 | 21 ± 8 nM | monomeric in DMF but are aggregated in PBS | 0.19 | 48 ± 19 nM | 40 ± 4 nM | –0.84 |  |  |  |  |  |  |  |  |
| C[n+]1cccc(Oc2cc3c(cc2Oc2ccc[n+](C)c2)C2=Nc4c5cc(Oc6ccc[n+](C)c6)c(Oc6ccc[n+](C)c6)cc5c5[n]4[Zn][n]4c(c6cc(Oc7ccc[n+](C)c7)c(Oc7ccc[n+](C)c7)cc6c4=NC4=NC(=N5)c5cc(Oc6ccc[n+](C)c6)c(Oc6ccc[n+](C)c6)cc54)=NC3=N2)c1.[I-].[I-].[I-].[I-].[I-].[I-].[I-].[I-] [C6Zn] | 41 730 M^–1cm^–1 | 681 nm | 683 nm | 0.02 |  | did not sufficiently suppress aggregation | 0.001 |  | 150 ± 50 nM | –2.59 | 110 ± 30 nM | 0.07 (3%) ns | 2.84 (97%) ns | 58 ± 20 nM |  |  |  |  |
| C=Cc1c(C)c2cc3nc(cc4[nH]c(cc5nc(cc1[nH]2)C(C)=C5CCC(=O)O)c(CCC(=O)OC)c4C)[C@@]1(C)C3=CC=C(C(=O)OC)[C@H]1C(=O)OC [verteporfin, reference compound] |  | 690 nm | 696 nm |  |  |  | 0.18 | 36 ± 10 nM |  |  |  | 6.05 ns |  |  | 0.51–0.67 | 33 ± 3 nM | 21 ± 3 nM | 2.51 |
| protoporhyrin IX [PpIX, reference compound] |  | 630 nm | 634 nm |  |  |  | 0.12 |  | 6200 ± 300 nM | 1.06 | 5700 ± 800 nM |  |  | 5500 ± 600 nM | 0.51–0.67 |  |  |  |
| temoporfin [reference compound] |  | 651 nm | 656 nm |  |  |  | 0.24 | 45 ± 7 nM | 103 ± 17 nM | 1.40 | 210 ± 74 nM | 9.66 ns |  |  | 0.51–0.67 |  |  |  |
